Numbers after ± are expanded uncertainties.
Conditions: Liquid, Ebulliometric method (Recirculating still)

CC1(C)COC1 [3,3-dimethyloxetane]
vapor or sublimation pressure (352.8 K): 101.3 ± 3 kPa

CC(C)(CO)CCl [3-chloro-2,2-dimethyl-1-propanol]
vapor or sublimation pressure (439.15 K): 101.3 ± 3 kPa

CC1CCCCC1 [methylcyclohexane]
vapor or sublimation pressure (373.35 K): 101.3 ± 3 kPa
